Entries after “also recorded” stand apart in the source; their conditions may differ.
Key:
[1] = tested on: Human Neural Stem Cells (HNSCs); assay: Differentiation of Hath1-transfected HNSCs (calretinin immunocytochemistry, Western blot, electron microscopy); assay type: cell-based
Description: An established a non-serum HNSC culture system was utilized to investigate the differentiation of human neural stem cells (HNSCs) within a defined condition. (Christopher L. Brannen and Kiminobu Sugaya, Regeneration and Transplantation, 11:5, 1123-1128 (2000)). The serum-free supplemented growth medium consisted of HAMS-F12 (Gibco, BRL, Burlington, ON), antibiotic/antimycotic mixture (1:100, Gibco), B27 (1:50, Gibco), human recombinant FGF-2 and EGF (20 ng/ml each, R and D Systems, Minneapolis, Minn.), and heparin (5 ug/ml, Sigma, St. Louis, Mo.). Cells were maintained in 20 ml of this medium at 37° C. in a 5% CO2 humidified incubation chamber.
The mammalian expression vector containing Hath1 gene was transfected into HNSCs by using the Neuroporter Kit (Gene Therapy Systems, Inc. San Diego, Calif.) and Hath 1 gene expression was confirmed by RT-PCR. These Hath1-transfected HNSCs were differentiated for 7 days by the depletion of mitotic factors (FGF-2, EGF) from the culture media. After the differentiation the cells were fixed for immunocytochemistry and Electron Microscopy.
The gene expression of Hath1 is assessed by RT-PCR with the following condition: 95° C. (60″), 56° C. (60″), 72° C. (60″) for 35 cycles, with an initial denaturation of 95° C. (5′) and final elongation of 72° C. (15′). The Hath1 gene is transfected into Human Neural Stem Cells (HNSCs) using the Neuroporter Kit. The Neuroporter kit utilizes a lipid-based transfection system for the use with cultured primary neurons, neuronal cell lines, and glial cells. DNA and Neuroporter are used in a ratio of 10 μg DNA/75 μl Neuroporter, utilizing 37.5 μl per well in a 6-well plate and with total volumes of 1.5 mL growth media per well. […]
Following PBST washing, the cells are incubated with secondary antibody biotinylated anti-rabbit made in goat in PBS containing 0.05% Triton-X100 (PBST), with a dilution factor of 1:200. […] The cells are washed with water, ethanol, and xylene, coverslipped with permount, and ready for viewing with microscopy. […]

LA-N-2 cells = assay: Retinoic acid treatment of LA-N-2 human neuroblastoma cells; assay type: cell-based; details: final concentration 10^−6M
Description: LA-N-2 cells were obtained from Dr. Jan Blusztajn (Boston University, MA). The cells were cultured in Leibovitz L-15 medium (Gibco, BRL, Burlington, ON) containing 10% fetal calf serum and antibiotic-antimyotic mixture (Gibco) in a humidified incubator at 37° C. without CO2. The medium was replaced every 3 days. For treatment with retinoic acid (RA), the cells were sub-plated at a density of 0.5-1×10^6 cells/plate using 0.25% trypsin/1 mM EDTA (Gibco, BRL) and allowed to attach overnight. A fresh stock of 4 mM all-trans retinoic acid RA (Sigma, St. Louis, Mo.) was prepared in 100% ethanol under amber lighting. […] The media was changed every 48 h during the differentiation of the cells, which was complete after 7-14 days.
Following fixation, HNSCs were briefly washed 3×5 min in Phosphate buffered saline (PBS), then blocked with 3% normal donkey serum in PBS containing 0.05% Tween 20 (PBS-T) and incubated with goat IgG polyclonal anti-human ChAT (1:500, Chemicon), mouseIgG2b monoclonal anti-human βIII-tubulin (1:1000, Sigma) or rabbit anti-human […] (GFAP) (1:1000, Sigma) overnight at 4° C. The corresponding secondary antibodies (donkey anti-goat, donkey anti-mouse, and donkey anti-rabbit, respectively) conjugated to rhodamine or FITC (Jackson IR Laboratories, Inc.) were added for a 2 hr incubation at RT in the dark. […]

HNSCs [2] = assay: Co-culture of HNSCs transfected with human Lhx8 gene with RA-treated LA-N-2 cells; assay type: cell-based; details: co-culture with RA-treated LA-N-2 cells
Description: Using the same vector formation and transfection methods as in Example 2, the Human Lxh8 gene (SEQ ID NO: 6) is transfected into HNSCs. Transfected NHSC cells are cultured in a first treatment that includes LA-N-2 cells that are treated with RA and that express both Lhx8 and ChAT. A co-culture control comprises NHSCs that are not transfected but that are in the same culture vessel as LA-N-2 that are treated with RA and that express both Lhx8 and ChAT. For the first treatment and the co-culture control, HNSC cells are placed in cell culture inserts with an appropriate pore size and suspended in basal media (in the absence of FGF-2 and EGF and without the addition of other extrinsic differentiation factors) over differentiated LA-N-2 cells plated in 6-well plates.
Immunochemistry follows the same procedure as in Example 2 above.

HNSCs [3] = assay: Co-culture of Lhx8-transfected HNSCs with RA-treated LA-N-2 cells, immunocytochemistry; assay type: cell-based, human
Description: HNSCs culture: Human NSCs were originally purchased from BioWhittaker, Walkersville, Md. These cells have been expanded and passaged in a serum-free culture medium containing bFGF and EGF in our laboratory for over three years (Brannen & Sugaya, 2000). The HNSCs were cultured at a density of 50 spheres in 75 cm^2 culture flasks (Corning, Cambridge, Mass.) in 20 ml of a serum-free supplemented growth medium consisting of HAMS-F12 (Gibco, BRL, Burlington, ON), antibiotic-antimycotic mixture (1:100, Gibco), B27 (1:50, Gibco), human recombinant FGF-2 and EGF (20 ng/ml each, R&D Systems, Minneapolis, Minn.) and heparin (5 μg/ml, Sigma, St. Louis, Mo.) incubated at 37° C. in a 5% CO^2 humidified incubation chamber (Fisher, Pittsburgh, Pa.). To facilitate optimal growth conditions, HNSCs were sectioned into quarters every 2 weeks and fed by replacing 50% of the medium every 4-5 days.
HNSCs were placed in 6-well poly-lysine coated plates and transfected with 4 μg pcDNA 3.1/Lhx8 plasmid using the Neuroporter transfection system (Gene Therapy Systems, see description in Example 1). Upon the insertion of the Lhx8 gene expressible sequence into the directional cloning vector, the expressible sequence was operatively linked to the CMV promoter, and was also positioned upstream (with regard to reading) of a polyadenylation transcription termination site. Lhx8 expression was confirmed after 48 hrs by RT-PCR using primers designed from the gene cDNA sequence; 5′[…]′ 3 (SEQ ID NO: 12, upper primer) and 5′[…]′3 (SEQ ID NO: 13, lower primer). To initiate differentiation, HNSCs were placed in serum-free basal medium, and allowed to differentiate for 10-15 days in culture.
HNSCs (˜5×10^4) transfected with pcDNA 3.1/Lhx8 and non-transfected HNSCs (controls) were transferred into cell culture inserts with an appropriate pore size and suspended in basal media (in the absence of FGF-2 and EGF and without the addition of other extrinsic differentiation factors) over differentiated LA-N-2 cells plated in 6-well plates. […]

Hath1: Hath1 gene amplified from BAC clone RP11-680J17, cloned into mammalian expression vector pcDNAHismax TOPO TA under CMV promoter
cell morphology by electron microscopy ([1]; transfected HNSCs after differentiation): typical IEHC morphology; also recorded: distinct hair-like projections
calretinin expression by Western blot ([1]; transfected HNSCs differentiated for 7 days): single band specific to calretinin molecular weight
calretinin (hair cell marker) expression by immunocytochemistry ([1]; transfected HNSCs differentiated for 7 days without FGF-2, EGF): existence of cells expressing calretinin

CC1=C(/C=C/C(C)=C/C=C/C(C)=C/C(=O)O)C(C)(C)CCC1 [RA, all-trans retinoic acid]
Lhx8 and ChAT gene expression by RT-PCR compared with non-treated cells (LA-N-2 cells; RA): increased expression
marker expression in LA-N-2 cells (immunostaining) (LA-N-2 cells; RA-containing media, 7-14 days): expressed Lhx8, βIII-tubulin, and ChAT

Human Lxh8 gene: Human Lxh8 gene (SEQ ID NO: 6) transfected into HNSCs with the vector and methods of Example 2
differentiated cell type (βIII-tubulin, ChAT staining) (HNSCs [2]): positive for βIII-tubulin and ChAT

B1: Lhx8: mouse cDNA clone for Lhx8 (SEQ ID NO: 7) inserted into pcDNA 3.1/Zeo mammalian expression vector (nucleic acid, listed as Mus musculus)
DNA: GAATTCGGCACGAGCTTCAGGAAAAGACTTTTCCCCCCACTCCCCCTCCTCTCTGCGAGGTTCCACCCTCTGGAAAACACAACTTTCCCTCTTTTTCTGGAGGGACAGGCCTTAGTGTGGCTGAGAGAGGAAGAACAGTGGGTCAGAGAGTGGTTACGTCACTGTGGCCTTTTTGGAACAAGACACACTGGTGGCATCGCTGTCCTGCCTGTTAGCTTTCCTTGGCCTTTGGGGGCGGAGGAGGGGACACTGCGGACACCCACAGCCTCTGACCCTGCTGGAGCTGGTATGTGACGAGCAGCCCTCGGGCCATGTATTGGAAGAGCGATCAGATGTTTGTGTGTAAGCTGGAGGGAAAGGAGATGCCGGAGCTGGCGGTTCCCCGCGAGATGTGCCCCGGGCTCATGTCGGAGGAGTGCGGGCGGCCTGCAGCTGGCGCCGGGAGGACCCGCAAAGGCTCTGGGGAAGAAGGACTGGTGAATCCCGAGGGAGCCGGGGACGAGGACTCCTGCTCCTCCTCGGGCCCGCTTTCCCCGTCGTCCTCGCCCCAGTCCATGGCCTCGGGTCCGATGTGCCCGCCAGGCAAGTGTGTGTGCAGCAGCTGCGGCCTGGAGATTGTGGACAAATACCTCCTCAAGGTGAATGACTTATGCTGGCATGTCCGCTGTCTCTCCTGCAGTGTCTGCAGAACGTCCCTGGGAAGGCACACGAGCTGCTACATTAAGGATAAAGATATTTTCTGTAAACTCGATTACTTCAGACGGTATGGGACCCGCTGTTCCCGCTGTGGCAGGCACATCCACTCGACTGACTGGGTCCGCAGGGCAAAGGGCAACGTGTATCACCTGGCCTGCTTTGCCTGCTTTTCTTGCAAGAGGCAGCTGTCCACGGGAGAGGAGTTCGCCTTGGTGGAGGAGAAGGTCCTCTGTAGAGTGCACTTTGACTGCATGCTGGACAATCTGAAGAGAGAAGTGGAGAACGGTAATGGGATTAGTGTGGAAGGAGCCCTTCTCACAGAGCAAGACGTCAATCATCCAAAGCCAGCCAAAAGAGCTCGGACCAGCTTCACAGCCGATCAGCTCCAGGTTATGCAAGCACAGTTCGCTCAGGACAACAACCCAGATGCACAGACCCTCCAGAAACTGGCAGAAAGGACAGGCTTAAGCAGACGTGTCATACAGGTGTGGTTTCAGAACTGCAGGGCCCGCCATAAGAAACACGTCAGCCCAAACCATTCTTCCTCGGCCCCCGTCACAGCTGTCCCCTCCTCCAGGCTGTCCCCACCCATCTTGGAAGAAATGGCTTATTCTGCCTACGACCCCCAGGATGACGGGATGCTGACTGCGCACTCATACTTGGATGCTCACCAACAACTCCTGGACTCCAGCCCTTGTTACCCCATCCAATGACCCAGCTGCCAATAAGTCATACCTAATTCCTTCTTTCAGGGATAGAAATGATTGAGGTTATAAACTTGTCATTTTATTATGTATAAAAATA
differentiated cell type (βIII-tubulin, ChAT staining) (HNSCs [3]; co-culture with LA-N-2 cholinergic cells, serum-free, 10-20 days): differentiated into mainly βIII-tubulin and ChAT-positive cells; also recorded: differentiated mostly neurons with long extended processes
percentage of transfected cells with characteristics of cholinergic neurons (HNSCs [3]; one trial, end of trial): over 40%
number of cells differentiating to cells having characteristics of cholinergic cells, versus non-transfected HNSCs (HNSCs [3]; transfected HNSCs cultured without differentiated LA-N-2 cells): no significant difference

Source: US9127291B2, “Methods and products for biasing cellular development” (University of Central Florida Research Foundation, Inc., priority 2004, dated 2015)
